Assay results reported in patent publication US5589506A, “Stilbene derivative and stilbene analog derivative, and use thereof” (Morinaga Milk Industry Co., Ltd., priority 1993, dated 1996).
Read-outs that look alike come from different tables or passages of the source.

Assays:
[1] = biological target: T1, 12-lipoxygenase (Rattus norvegicus, UniProt F1LQ70); assay: 12-lipoxygenase inhibition assay (rat platelet enzyme solution); assay type: biochemical, Sprague Dawley male rat; settings: for 12-Lipoxygenase inhibition ratio (%): 10^-8 (mole concentration), 0.01 µM
T1 construct: The pelleted platelets were rinsed twice with a washing buffer; from tissue; host or cells: platelets of Sprague Dawley male rat (sonicate, 100,000 x g supernatant)
T1 sequence (F1LQ70 1-663): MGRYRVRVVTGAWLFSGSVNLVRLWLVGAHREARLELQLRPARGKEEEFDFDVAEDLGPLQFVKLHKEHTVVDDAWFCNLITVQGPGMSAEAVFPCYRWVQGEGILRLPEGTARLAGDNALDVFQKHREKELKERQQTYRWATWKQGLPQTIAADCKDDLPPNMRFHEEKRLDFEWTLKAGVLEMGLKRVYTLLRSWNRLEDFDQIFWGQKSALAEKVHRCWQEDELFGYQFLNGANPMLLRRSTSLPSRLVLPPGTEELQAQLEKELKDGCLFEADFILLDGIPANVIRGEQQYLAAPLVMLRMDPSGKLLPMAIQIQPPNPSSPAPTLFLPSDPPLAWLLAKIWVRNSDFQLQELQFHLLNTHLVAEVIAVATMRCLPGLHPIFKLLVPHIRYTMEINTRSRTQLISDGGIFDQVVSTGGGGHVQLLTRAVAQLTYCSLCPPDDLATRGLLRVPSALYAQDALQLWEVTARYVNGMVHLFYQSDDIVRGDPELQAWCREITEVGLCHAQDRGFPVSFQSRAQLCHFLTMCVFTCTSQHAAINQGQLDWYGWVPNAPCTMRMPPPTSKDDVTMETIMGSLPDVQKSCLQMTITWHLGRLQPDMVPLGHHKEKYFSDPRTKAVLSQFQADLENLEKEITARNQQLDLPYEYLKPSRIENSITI
Method: The test was performed to examine inhibitory effect of various compounds on the 12-lipoxyganase activity.
1) Preparation of Enzyme Solution
A Sprague Dawley male rat was anesthetized with ether and bled from abdominal aorta using a syringe filled with about one-tenth volume of 3.8% sodium citrate. Blood was centrifuged at 180×g for 15 minutes at room temperature to pellet sanguineous platelet blood plasma. The resultant supernatant was again centrifuged at 1800×g for 10 minutes at 4° C. The pelleted platelets were rinsed twice with a washing buffer (50 mM Tris-hydrochloric acid buffer containing 154 mM sodium chloride and 2 mM EDTA, pH: 7.4). The platelets were then suspended in one-twentieth volume of a resuspension buffer (50 mM Tris-hydrochloric acid buffer containing 154 mM sodium chloride and 5.5 mM glucose, pH: 7.4). The platelets were then sonicated at 4° C. and centrifuged at 100,000×g for 30 minutes to obtain a supernatant as a 12-lipoxgenaseenzyme solution.
2) Procedure for 12-lipoxgenase inhibition assay
The enzyme solution described above was diluted with the resuspension buffer above mentioned to prepare an assay solution so as to include about 2 mU/ml of 12-lipoxygenase. […] The resultant mixture was incubated at 37° C. for 5 minutes. Subsequently, 3 μl of a 2.5 mM arachidonic acid solution in ethanol was added to incubate with for another 5 minutes at 37° C., then the reaction was ceased by the addition of 600 μl of methanol. After being centrifuged at 10,000×g for 5 minutes, 12-hydroxyeicosatetraenoic acid recovered in the supernatant was separated with a reverse phase high-performance liquid chromatography equipped with a […] the activity of 12 lipoxygenase.
The enzyme solution was prepared according to the same manner as in Test Example 1.
It was prepared according to the same procedure as in Test Example 1.
Measurement was performed according to the same procedure as in Test Example 1.
The measurement was performed according to the same procedure as in Test Example 1.

[2] = biological target: T2, 5-lipoxygenase (Rattus norvegicus, UniProt P12527); assay: 5-lipoxygenase inhibition assay (rat basophilic leukemia cell RBL-1 enzyme solution); assay type: biochemical
T2 construct: Cultured cells were collected and washed twice; host or cells: RBL-1 rat basophilic leukemia cells (sonicate, 10,000 x g supernatant)
T2 sequence (P12527 1-673): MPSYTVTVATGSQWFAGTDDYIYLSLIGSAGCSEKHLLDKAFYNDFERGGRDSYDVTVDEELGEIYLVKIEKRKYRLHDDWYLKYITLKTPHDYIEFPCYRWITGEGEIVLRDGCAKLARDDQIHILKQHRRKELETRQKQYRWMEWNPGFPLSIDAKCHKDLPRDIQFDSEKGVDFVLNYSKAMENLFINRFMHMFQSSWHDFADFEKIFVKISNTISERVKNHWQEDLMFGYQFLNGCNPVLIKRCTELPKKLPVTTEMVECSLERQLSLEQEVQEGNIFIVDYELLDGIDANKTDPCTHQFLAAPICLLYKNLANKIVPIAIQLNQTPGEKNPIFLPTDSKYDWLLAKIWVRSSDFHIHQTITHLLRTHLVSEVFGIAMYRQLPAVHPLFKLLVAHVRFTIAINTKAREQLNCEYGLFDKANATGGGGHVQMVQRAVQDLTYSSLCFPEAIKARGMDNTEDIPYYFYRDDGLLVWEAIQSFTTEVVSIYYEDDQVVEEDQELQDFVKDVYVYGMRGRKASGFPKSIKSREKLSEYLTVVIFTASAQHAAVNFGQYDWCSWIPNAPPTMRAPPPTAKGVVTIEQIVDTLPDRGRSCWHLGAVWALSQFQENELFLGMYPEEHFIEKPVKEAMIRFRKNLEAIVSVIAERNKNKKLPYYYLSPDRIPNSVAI
Method: The test was carried out to examine the selectivity toward 12-lipoxgenase of the compounds of the first embodiment in the present invention.
i) Preparation of 5-lipoxgenase enzyme solution
Rat basophilic leukemia cells (RBL-1, ATCC CRL1378) were cultured in Dulbecco modified Eagle's medium containing 10% new-born bovine serum.
Cultured cells were collected and washed twice with a 50 mM Tris-buffered saline (containing 154 mM sodium chloride, pH: 7.4, hereinafter described as TBS). The cell suspension (4×10^7 cells/ml) was then sonicated and centrifuged at 10,000×g for 10 minutes.
The resultant supernatant was used to prepare an assay solution.
i) Procedure for 5-lipoxgenase inhibition assay
To an aliquot (15 μl) of the enzyme solution (40 mU/ml equivalent) was added 185 μl of TBS, 50 μl of a 2 mM adenosine triphosphate in TBS, 50 μl of a 12 mM calcium chloride in TBS, 1 μl of a 3 mM indomethacin in ethanol solution, 1 μl of an aqueous 300 mM reduced glutathione solution, and 3 μl of varied concentrated test compounds solution in ethanol. The resultant mixture was incubated at 37° C. for 5 minutes. Subsequently, 3 μl of a 2.5 mM arachidonic acid solution in ethanol was added to incubate the mixture for 2 minutes at 37° C. The reaction was ceased by the addition of 600 μl of methanol After being centrifuged at 10,000×g for 5 minutes, 5-hydroxyeicosatetraenoic acid recovered in the supernatant was separated with a reverse phase high-performance liquid chromatography equipped with a C-18 column and measured the absorption of diene at 234 nm to quantify the activity of the enzyme. […]
The enzyme activities of the compounds of the present invention prepared according to the same procedure as in Examples 54-58 to be described later and baicalein as sample substances at varied concentrations were measured according to the above-mentioned method, and mole concentrations showing 50% 12-lipoxgenase and 5-lipoxgenase inhibition ratios (hereinafter may be described as IC50 values) were obtained from the measured values of the sample substances.

[3] = Table 3, read-out: IC50 values of 12-lipoxygenase (mole)
[4] = Table 3, read-out: IC50 values of 5-lipoxygenase (mole)
[5] = Table 12, deacylated compounds, read-out: 12-Lipoxygenase inhibitory effect of deacylated compounds (IC50 values)
[6] = Table 23, read-out: 12-Lipoxygenase inhibitory effect IC50
[7] = Table 23, read-out: 5-Lipoxygenase inhibitory effect IC50

SMILES	IC50 [1, 3]	IC50 [2, 4]	IC50 [1, 5]	other results
N#CC(=Cc1ccc(O)c(O)c1)c1ccc(C#N)cc1 [Ex. 16]	28 nM	100 nM	–	–
N#CC(=Cc1ccc(O)c(O)c1)c1ccc([N+](=O)[O-])cc1 [Ex. 17, α-cyano-4-nitro-3',4'-dihydroxystilbene]	8.8 nM	130 nM	8.8 nM	–
N#CC(=Cc1ccc(O)c(O)c1)c1ccc(Br)s1 [Ex. 14]	3.6 nM	26 nM	–	–
N#CC(=Cc1ccc(O)c(O)c1)c1ccccc1 [Ex. 9]	15 nM	110 nM	–	–
N#CC(=Cc1ccc(F)cc1)c1ccc(O)c(O)c1 [Ex. 21, α-cyano-4'-fluoro-3,4-dihydroxystilbene]	4.8 nM	74 nM	4.8 nM	–
Cc1ccc(C(C#N)=Cc2ccc(O)c(O)c2)cc1 [Ex. 6]	4.5 nM	48 nM	–	–
N#CC(=Cc1cc2ccccc2o1)c1ccc(O)c(O)c1 [Formula 26c]	–	–	–	IC50 [1, 6]: 3.2 nM; IC50 [2, 7]: 34 nM
N#CC(=Cc1cccc(Cl)c1)c1ccc(O)c(O)c1 [Ex. 22, α-cyano-3'-chloro-3,4-dihydroxystilbene]	5.1 nM	34 nM	5.1 nM	–
N#CC(=Cc1cccc2ccccc12)c1ccc(O)c(O)c1 [Formula 25c]	–	–	–	IC50 [1, 6]: 5.9 nM; IC50 [2, 7]: 36 nM
N#CC(=Cc1ccc(O)c(O)c1)c1ccc(Cl)cc1 [Ex. 1, α-cyano-4-chloro-3',4'-dihydroxystilbene]	4.2 nM	38 nM	4.2 nM	inhibition at 10 µM ([1]; 10^-5 (mole concentration), read-out: 12-Lipoxygenase inhibition ratio (%)): 97%; inhibition at 1 µM ([1]; 10^-6 (mole concentration), read-out: 12-Lipoxygenase inhibition ratio (%)): 97%; inhibition at 0.1 µM ([1]; 10^-7 (mole concentration), read-out: 12-Lipoxygenase inhibition ratio (%)): 98%; 12-Lipoxygenase inhibition ratio (%) [1]: 73%; 12-Lipoxygenase inhibition ratio (%) ([1]; listed as Example 1, 0.01 µM): 73%; inhibition at 0.001 µM ([1]; 10^-9 (mole concentration), read-out: 12-Lipoxygenase inhibition ratio (%)): 1%; IC50 ([1]; Table 2, read-out: 12-Lipoxygenase IC50 values): 4.2 nM
N#CC(=Cc1ccc(O)c(O)c1)c1cc(Br)cs1 [Ex. 13, α-(3,4-dihydroxybenzylidene)-4-bromothiophene-2-acetonitrile]	3 nM	36 nM	3 nM	–
N#CC(=Cc1ccc(O)c(O)c1)c1ccc2ccccc2c1 [Formula 23c]	–	–	–	IC50 [1, 6]: 10 nM; IC50 [2, 7]: 30 nM
N#CC(=Cc1ccc(O)c(O)c1)c1csc2ccccc12 [Formula 22c]	–	–	–	IC50 [1, 6]: 8.6 nM; IC50 [2, 7]: 56 nM
N#CC(=Cc1cc(O)c(O)c(O)c1)c1ccc(Cl)cc1 [Ex. 15, α-cyano-4-chloro-3',4',5'-trihydroxystilbene]	14 nM	56 nM	–	–
CCc1ccc(C(C#N)=Cc2ccc(O)c(O)c2)cc1 [Ex. 11]	5.8 nM	46 nM	–	–
Cc1ccc(C=C(C#N)c2ccc(O)c(O)c2)s1 [Ex. 27, α-(5-methylthiophen-2-ylmethylidene)-3,4-dihydroxybenzeneacetonitrile]	7.7 nM	66 nM	–	–
N#CC(=Cc1ccc(Cl)cc1)c1ccc(O)c(O)c1 [Ex. 2, α-cyano-4'-chloro-3,4-dihydroxystilbene]	1.8 nM	56 nM	1.8 nM	–
N#CC(=Cc1ccc(O)c(O)c1)c1ccc(Br)cc1 [Ex. 4]	3.6 nM	15 nM	–	–
N#CC(=Cc1ccc2ccccc2c1)c1ccc(O)c(O)c1 [Formula 24c]	–	–	–	IC50 [1, 6]: 5.6 nM; IC50 [2, 7]: 28 nM
CCc1ccc(C=C(C#N)c2ccc(O)c(O)c2)cc1 [Ex. 26, α-cyano-4'-ethyl-3,4-dihydroxystilbene]	4.2 nM	32 nM	–	–
Cc1ccc(C=C(C#N)c2ccc(O)c(O)c2)cc1 [Ex. 24, α-cyano-4'-methyl-3,4-dihydroxystilbene]	2.5 nM	52 nM	4.5 nM	–
N#CC(=Cc1ccc(O)c(O)c1)c1ccc(F)cc1 [Ex. 3]	4.8 nM	94 nM	–	–
N#CC(=Cc1ccccc1)c1ccc(O)c(O)c1 [Ex. 20, α-cyano-3,4-dihydroxystilbene]	17 nM	96 nM	–	–
N#CC(=Cc1ccc(O)c(O)c1)c1ccc(I)cc1 [Ex. 5, α-cyano-4-iodo-3',4'-dihydroxystilbene]	5.4 nM	20 nM	5.4 nM	–
N#CC(=Cc1ccc(Br)cc1)c1ccc(O)c(O)c1 [Ex. 23, α-cyano-4'-bromo-3,4-dihydroxystilbene]	2.2 nM	70 nM	3.6 nM	–
Cc1cccc(C=C(C#N)c2ccc(O)c(O)c2)c1 [Bz. 25, α-cyano-3'-methyl-3,4-dihydroxystilbene]	7 nM	44 nM	–	–
